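How tested: cells in 96-well plates exposed to compound for 48 hours at five concentrations. Definition used: TGI = concentration required for complete inhibition of growth.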
How the values were obtained:
Assay in all cases: inhibition of tumour cell growth, NCI panel, 48 h
[1] = tested on: MDA-MB-435
[2] = tested on: RPMI-8226 leukemia
[3] = tested on: DU-145 prostate
[4] = tested on: NCI-H23 lung
[5] = tested on: UACC-257 melanoma
[6] = tested on: PC-3 prostate
[7] = tested on: UO-31 renal
[8] = tested on: OVCAR-3 ovarian
[9] = tested on: M14 melanoma
[10] = tested on: SNB-19 CNS
[11] = tested on: MDA-N
[12] = tested on: SR leukemia
[13] = tested on: SF-539 CNS
[14] = tested on: KM12 colon
[15] = tested on: SK-OV-3 ovarian
[16] = tested on: HCT-116 colon
[17] = tested on: COLO 205 colon
[18] = tested on: SF-295 CNS
[19] = tested on: SF-268 CNS
[20] = tested on: CAKI-1 renal
[21] = tested on: TK-10 renal
[22] = tested on: U251 CNS
[23] = tested on: SK-MEL-28 melanoma
[24] = tested on: NCI-H522 lung
[25] = tested on: A549 NSCLC
[26] = tested on: OVCAR-8 ovarian
[27] = tested on: SNB-75 CNS
[28] = tested on: 786-0 renal
[29] = tested on: UACC-62 melanoma
[30] = tested on: OVCAR-5 ovarian
[31] = tested on: NCI/ADR-RES ovarian
[32] = tested on: MALME-3M melanoma
[33] = tested on: HCC-2998 colon
[34] = tested on: HT29 colon
[35] = tested on: HCT-15 colon
[36] = tested on: OVCAR-4 ovarian
[37] = tested on: NCI-H460 lung
[38] = tested on: SW-620 colon
[39] = tested on: MOLT-4 leukemia
[40] = tested on: CCRF-CEM leukemia
[41] = tested on: EKVX NSCLC
[42] = tested on: IGROV1 ovarian
[43] = tested on: SK-MEL-5 melanoma
[44] = tested on: BT-549 breast
[45] = tested on: HOP-62 NSCLC
[46] = tested on: SN12C renal
[47] = tested on: MCF7 breast
[48] = tested on: HL-60(TB) leukemia
[49] = tested on: SK-MEL-2 melanoma
[50] = tested on: K-562 leukemia
[51] = tested on: LOX IMVI melanoma
[52] = tested on: MDA-MB-231 breast
[53] = tested on: ACHN renal
[54] = tested on: A498 renal
[55] = tested on: NCI-H226 lung
[56] = tested on: T-47D breast
[57] = tested on: RXF 393 renal
[58] = tested on: HS 578T breast
[59] = tested on: HOP-92 NSCLC

COC(=O)c1cc(S(=O)(=O)NC2=NCC(C)NN2)c(S)cc1Cl (stereo not given)
TGI [1]: > 100 µM
TGI [2]: > 100 µM
TGI [3]: > 100 µM
TGI [4]: > 100 µM
TGI [5]: > 100 µM
TGI [6]: > 100 µM
TGI [7]: > 100 µM
TGI [8]: > 100 µM
TGI [9]: > 100 µM
TGI [10]: > 100 µM
TGI [11]: > 100 µM
TGI [12]: > 100 µM
TGI [13]: > 100 µM
TGI [14]: > 100 µM
TGI [15]: > 100 µM
TGI [16]: > 100 µM
TGI [17]: > 100 µM
TGI [18]: > 100 µM
TGI [19]: 60.6 µM
TGI [20]: > 100 µM
TGI [21]: > 100 µM
TGI [22]: > 100 µM
TGI [23]: > 100 µM
TGI [24]: 47.5 µM
TGI [25]: > 100 µM
TGI [26]: > 100 µM
TGI [27]: 75.3 µM
TGI [28]: > 100 µM
TGI [29]: > 100 µM
TGI [30]: > 100 µM
TGI [31]: > 100 µM
TGI [32]: 97.5 µM
TGI [33]: > 100 µM
TGI [34]: > 100 µM
TGI [35]: > 100 µM
TGI [36]: > 100 µM
TGI [37]: > 100 µM
TGI [38]: > 100 µM
TGI [39]: > 100 µM
TGI [40]: > 100 µM
TGI [41]: > 100 µM
TGI [42]: > 100 µM
TGI [43]: 82.3 µM
TGI [44]: > 100 µM
TGI [45]: > 100 µM
TGI [46]: > 100 µM
TGI [47]: > 100 µM
TGI [48]: > 100 µM
TGI [49]: 84.5 µM
TGI [50]: > 100 µM
TGI [51]: > 100 µM
TGI [52]: > 100 µM
TGI [53]: > 100 µM
TGI [54]: 72.8 µM

Cn1c2ccccc2c(=O)c2c(O)cc3c(c21)C1OCC(C)(O)C1O3 (stereo not given)
TGI [1]: > 100 µM
TGI [2]: > 100 µM
TGI [3]: > 100 µM
TGI [5]: > 100 µM
TGI [6]: > 100 µM
TGI [7]: 36.6 µM
TGI [9]: > 100 µM
TGI [10]: > 100 µM
TGI [11]: > 100 µM
TGI [12]: > 100 µM
TGI [55]: 63.5 µM
TGI [13]: 56.2 µM
TGI [15]: > 100 µM
TGI [16]: > 100 µM
TGI [17]: > 100 µM
TGI [19]: 86.6 µM
TGI [20]: > 100 µM
TGI [21]: > 100 µM
TGI [22]: 62.5 µM
TGI [23]: > 100 µM
TGI [25]: > 100 µM
TGI [26]: > 100 µM
TGI [27]: 56 µM
TGI [56]: > 100 µM
TGI [28]: > 100 µM
TGI [30]: > 100 µM
TGI [57]: 69 µM
TGI [31]: > 100 µM
TGI [33]: > 100 µM
TGI [34]: > 100 µM
TGI [35]: > 100 µM
TGI [36]: > 100 µM
TGI [38]: > 100 µM
TGI [39]: > 100 µM
TGI [40]: > 100 µM
TGI [41]: > 100 µM
TGI [58]: 37.5 µM
TGI [42]: 79.7 µM
TGI [43]: > 100 µM
TGI [45]: > 100 µM
TGI [46]: > 100 µM
TGI [47]: > 100 µM
TGI [48]: > 100 µM
TGI [49]: > 100 µM
TGI [50]: > 100 µM
TGI [52]: > 100 µM
TGI [53]: > 100 µM

CCOC(=O)c1cn(CC)c(=O)n2c1nc1ccccc12
TGI [1]: > 100 µM
TGI [2]: 75.1 µM
TGI [3]: > 100 µM
TGI [4]: > 100 µM
TGI [5]: > 100 µM
TGI [6]: > 100 µM
TGI [59]: > 100 µM
TGI [7]: 10.2 µM
TGI [8]: > 100 µM
TGI [9]: > 100 µM
TGI [10]: > 100 µM
TGI [11]: > 100 µM
TGI [12]: > 100 µM
TGI [55]: > 100 µM
TGI [13]: > 100 µM
TGI [14]: > 100 µM
TGI [16]: > 100 µM
TGI [17]: > 100 µM
TGI [18]: > 100 µM
TGI [20]: > 100 µM
TGI [22]: > 100 µM
TGI [23]: > 100 µM
TGI [25]: > 100 µM
TGI [26]: > 100 µM
TGI [27]: > 100 µM
TGI [56]: > 100 µM
TGI [28]: > 100 µM
TGI [29]: > 100 µM
TGI [30]: > 100 µM
TGI [57]: > 100 µM
TGI [31]: > 100 µM
TGI [33]: > 100 µM
TGI [34]: > 100 µM
TGI [35]: > 100 µM
TGI [36]: > 100 µM
TGI [37]: > 100 µM
TGI [38]: > 100 µM
TGI [39]: > 100 µM
TGI [40]: > 100 µM
TGI [41]: > 100 µM
TGI [42]: > 100 µM
TGI [43]: > 100 µM
TGI [44]: > 100 µM
TGI [45]: > 100 µM
TGI [46]: > 100 µM
TGI [47]: > 100 µM
TGI [49]: > 100 µM
TGI [50]: > 100 µM
TGI [51]: 84.1 µM
TGI [52]: > 100 µM
TGI [53]: > 100 µM
TGI [54]: > 100 µM

O=c1cc(Nc2cccc(O)c2)[nH]c(=O)[nH]1
TGI [1]: > 100 µM
TGI [2]: > 100 µM
TGI [4]: > 100 µM
TGI [5]: > 100 µM
TGI [6]: > 100 µM
TGI [59]: > 100 µM
TGI [7]: > 100 µM
TGI [8]: > 100 µM
TGI [9]: > 100 µM
TGI [10]: > 100 µM
TGI [11]: > 100 µM
TGI [12]: > 100 µM
TGI [55]: > 100 µM
TGI [13]: > 100 µM
TGI [14]: > 100 µM
TGI [15]: > 100 µM
TGI [16]: > 100 µM
TGI [17]: > 100 µM
TGI [18]: > 100 µM
TGI [19]: > 100 µM
TGI [20]: > 100 µM
TGI [21]: > 100 µM
TGI [22]: > 100 µM
TGI [23]: > 100 µM
TGI [24]: > 100 µM
TGI [25]: > 100 µM
TGI [26]: > 100 µM
TGI [27]: > 100 µM
TGI [56]: > 100 µM
TGI [28]: > 100 µM
TGI [29]: > 100 µM
TGI [30]: > 100 µM
TGI [57]: > 100 µM
TGI [31]: > 100 µM
TGI [32]: > 100 µM
TGI [33]: > 100 µM
TGI [34]: > 100 µM
TGI [35]: > 100 µM
TGI [36]: > 100 µM
TGI [37]: > 100 µM
TGI [38]: > 100 µM
TGI [39]: > 100 µM
TGI [40]: > 100 µM
TGI [41]: > 100 µM
TGI [58]: > 100 µM
TGI [42]: > 100 µM
TGI [43]: > 100 µM
TGI [44]: > 100 µM
TGI [45]: > 100 µM
TGI [46]: > 100 µM
TGI [48]: > 100 µM
TGI [49]: > 100 µM
TGI [50]: > 100 µM
TGI [51]: > 100 µM
TGI [52]: > 100 µM
TGI [53]: > 100 µM
TGI [54]: > 100 µM

From PubChem BioAssay (NCI)
